Laboratory results from ChEMBL document CHEMBL1142186, “Multistep resistance selection and postantibiotic-effect studies of the antipneumococcal activity of LBM415 compared to other agents” (2007).
In brackets after ≈: the same amount, converted by molar mass.

Experiments:
Assay type in all cases: functional
Streptococcus pneumoniae [1] = assay: Antibacterial activity against levofloxacin resistance selected Streptococcus pneumoniae 19 with GyrA S81Y and ParC D83Y mutation after 10 antibiotic-free subcultures by macrodilution method
Streptococcus pneumoniae [2] = assay: Antibacterial activity against moxifloxacin resistance selected Streptococcus pneumoniae 3665 with GyrA S81Y mutation after 10 antibiotic-free subcultures by macrodilution method
Streptococcus pneumoniae [3] = assay: Antibacterial activity against clarithromycin resistance selected Streptococcus pneumoniae 3665 after 10 antibiotic-free subcultures by macrodilution method
Streptococcus pneumoniae [4] = assay: Antibacterial activity against gatifloxacin resistance selected Streptococcus pneumoniae 3009 after 10 antibiotic-free subcultures by macrodilution method
Streptococcus pneumoniae [5] = assay: Antibacterial activity against Streptococcus pneumoniae assessed as period of suppression of bacterial growth
Streptococcus pneumoniae [6] = assay: Antibacterial activity against clarithromycin resistance selected Streptococcus pneumoniae 3676 after 10 antibiotic-free subcultures by macrodilution method
Streptococcus pneumoniae [7] = assay: Antibacterial activity against moxifloxacin resistance selected Streptococcus pneumoniae 3243 after 10 antibiotic-free subcultures by macrodilution method
Streptococcus pneumoniae [8] = assay: Antibacterial activity against gatifloxacin resistance selected Streptococcus pneumoniae 37 with GyrA S81Y, GyrB E474K and ParC S79Y mutation after 10 antibiotic-free subcultures by macrodilution method
Streptococcus pneumoniae [9] = assay: Antibacterial activity against azithromycin resistance selected Streptococcus pneumoniae 1077 with 23S rRNA A2058G mutation after 10 antibiotic-free subcultures by macrodilution method
Streptococcus pneumoniae [10] = assay: Antibacterial activity against gatifloxacin resistance selected Streptococcus pneumoniae 1076 with ParC S79Y mutation after 10 antibiotic-free subcultures by macrodilution method
Streptococcus pneumoniae [11] = assay: Antibacterial activity against azithromycin resistance selected Streptococcus pneumoniae 3243 with L22 insertion 93SFRPRA94 mutation after 10 antibiotic-free subcultures by macrodilution method
Streptococcus pneumoniae [12] = assay: Antibacterial activity against moxifloxacin resistance selected Streptococcus pneumoniae 24 with GyrA S81Y, GyrB P413S and ParC S79F mutation after 10 antibiotic-free subcultures by macrodilution method
Streptococcus pneumoniae [13] = assay: Antibacterial activity against clarithromycin resistance selected Streptococcus pneumoniae 3009 after 10 antibiotic-free subcultures by macrodilution method
Streptococcus pneumoniae [14] = assay: Antibacterial activity against clarithromycin resistance selected Streptococcus pneumoniae 3243 with 23S rRNA A2059T mutation after 10 antibiotic-free subcultures by macrodilution method
Streptococcus pneumoniae [15] = assay: Antibacterial activity against moxifloxacin resistance selected Streptococcus pneumoniae 19 with GyrA S81F mutation after 10 antibiotic-free subcultures by macrodilution method
Streptococcus pneumoniae [16] = assay: Antibacterial activity against moxifloxacin resistance selected Streptococcus pneumoniae 3676 with GyrA E85G, GyrB S478I and ParC S79Y mutation after 10 antibiotic-free subcultures by macrodilution method
Streptococcus pneumoniae [17] = assay: Antibacterial activity against moxifloxacin resistance selected Streptococcus pneumoniae 1076 with ParC S79Y mutation after 10 antibiotic-free subcultures by macrodilution method
Streptococcus pneumoniae [18] = assay: Antibacterial activity against levofloxacin resistance selected Streptococcus pneumoniae 3009 with GyrA S81Y and ParC S79Y mutation after 10 antibiotic-free subcultures by macrodilution method
Streptococcus pneumoniae [19] = assay: Antibacterial activity against azithromycin resistance selected Streptococcus pneumoniae 2527 after 10 antibiotic-free subcultures by macrodilution method
Streptococcus pneumoniae [20] = assay: Antibacterial activity against moxifloxacin resistance selected Streptococcus pneumoniae 3009 with GyrA S81F and ParC D83N mutation after 10 antibiotic-free subcultures by macrodilution method
Streptococcus pneumoniae [21] = assay: Antibacterial activity against clarithromycin resistance selected Streptococcus pneumoniae 3243 with 23S rRNA A2059T mutation after 41 passages by macrodilution method
Streptococcus pneumoniae [22] = assay: Antibacterial activity against Streptococcus pneumoniae 3009 by macrodilution method
Streptococcus pneumoniae [23] = assay: Antibacterial activity against clarithromycin resistance selected Streptococcus pneumoniae 3665 after 26 passages by macrodilution method
Streptococcus pneumoniae [24] = assay: Antibacterial activity against Streptococcus pneumoniae 3665 by macrodilution method
Streptococcus pneumoniae [25] = assay: Antibacterial activity against Streptococcus pneumoniae 3243 by macrodilution method
Streptococcus pneumoniae [26] = assay: Antibacterial activity against Streptococcus pneumoniae 3676 by macrodilution method
Streptococcus pneumoniae [27] = assay: Antibacterial activity against clarithromycin resistance selected Streptococcus pneumoniae 3676 after 44 passages by macrodilution method
Streptococcus pneumoniae [28] = assay: Antibacterial activity against clarithromycin resistance selected Streptococcus pneumoniae 3009 after 25 passages by macrodilution method

Compound	MIC (Streptococcus pneumoniae [1]) [µg/mL]	MIC (Streptococcus pneumoniae [2]) [µg/mL]	MIC (Streptococcus pneumoniae [3]) [µg/mL]	MIC (Streptococcus pneumoniae [4]) [µg/mL]	Post Antibiotic Effe (Streptococcus pneumoniae [5]) [h]	MIC (Streptococcus pneumoniae [6]) [µg/mL]	MIC (Streptococcus pneumoniae [7]) [µg/mL]	MIC (Streptococcus pneumoniae [8]) [µg/mL]	MIC (Streptococcus pneumoniae [9]) [µg/mL]	MIC (Streptococcus pneumoniae [10]) [µg/mL]	MIC (Streptococcus pneumoniae [11]) [µg/mL]	MIC (Streptococcus pneumoniae [12]) [µg/mL]	MIC (Streptococcus pneumoniae [13]) [µg/mL]	MIC (Streptococcus pneumoniae [14]) [µg/mL]	MIC (Streptococcus pneumoniae [15]) [µg/mL]	MIC (Streptococcus pneumoniae [16]) [µg/mL]	MIC (Streptococcus pneumoniae [17]) [µg/mL]	MIC (Streptococcus pneumoniae [18]) [µg/mL]	MIC (Streptococcus pneumoniae [19]) [µg/mL]	MIC (Streptococcus pneumoniae [20]) [µg/mL]	also measured
CO/N=C(\C(=O)N[C@@H]1C(=O)N2C(C(=O)O)=C(COC(N)=O)CS[C@H]12)c1ccco1 [CEFUROXIME]	2 (≈ 4.71 µM)	0.5 (≈ 1.18 µM)	0.125 (≈ 0.295 µM)	0.03 (≈ 0.0707 µM)	1.5	0.125 (≈ 0.295 µM)	0.25 (≈ 0.589 µM)	2 (≈ 4.71 µM)	0.03 (≈ 0.0707 µM)	0.125 (≈ 0.295 µM)	0.5 (≈ 1.18 µM)	2 (≈ 4.71 µM)	0.03 (≈ 0.0707 µM)	0.25 (≈ 0.589 µM)	2 (≈ 4.71 µM)	0.125 (≈ 0.295 µM)	0.03 (≈ 0.0707 µM)	≤ 0.016	16 (≈ 37.7 µM)	0.03 (≈ 0.0707 µM)	
CC[C@H]1OC(=O)[C@H](C)[C@@H](O[C@H]2C[C@@](C)(OC)[C@@H](O)[C@H](C)O2)[C@H](C)[C@@H](O[C@@H]2O[C@H](C)C[C@H](N(C)C)[C@H]2O)[C@](C)(OC)C[C@@H](C)C(=O)[C@H](C)[C@@H](O)[C@]1(C)O [CLARITHROMYCIN]	> 128	2 (≈ 2.67 µM)	8 (≈ 10.7 µM)	2 (≈ 2.67 µM)	3.8	16 (≈ 21.4 µM)	0.004 (≈ 0.00535 µM)	> 128	> 128	> 128	0.5 (≈ 0.668 µM)	> 128	64 (≈ 85.6 µM)	0.25 (≈ 0.334 µM)	> 128	4 (≈ 5.35 µM)	> 128	0.5 (≈ 0.668 µM)	16 (≈ 21.4 µM)	4 (≈ 5.35 µM)	MIC (Streptococcus pneumoniae [21]): 0.25 µg/mL (≈ 0.334 µM); MIC (Streptococcus pneumoniae [22]): 16 µg/mL (≈ 21.4 µM); MIC (Streptococcus pneumoniae [23]): 16 µg/mL (≈ 21.4 µM); MIC (Streptococcus pneumoniae [24]): 2 µg/mL (≈ 2.67 µM); MIC (Streptococcus pneumoniae [25]): 0.016 µg/mL (≈ 0.0214 µM); MIC (Streptococcus pneumoniae [26]): 4 µg/mL (≈ 5.35 µM); MIC (Streptococcus pneumoniae [27]): 32 µg/mL (≈ 42.8 µM); MIC (Streptococcus pneumoniae [28]): > 128 µg/mL
C[C@@H](O)[C@H]1C(=O)N2C(C(=O)O)=C(SCCNC=N)C[C@H]12 [IMIPENEM ANHYDROUS]	0.5 (≈ 1.67 µM)	0.03 (≈ 0.1 µM)	0.03 (≈ 0.1 µM)	0.008 (≈ 0.0267 µM)	1.7	0.016 (≈ 0.0534 µM)	0.004 (≈ 0.0134 µM)	0.5 (≈ 1.67 µM)	0.008 (≈ 0.0267 µM)	0.008 (≈ 0.0267 µM)	0.03 (≈ 0.1 µM)	0.5 (≈ 1.67 µM)	≤ 0.004	0.03 (≈ 0.1 µM)	0.5 (≈ 1.67 µM)	0.03 (≈ 0.1 µM)	0.008 (≈ 0.0267 µM)	≤ 0.004	0.5 (≈ 1.67 µM)	0.008 (≈ 0.0267 µM)	
C[C@H]1COc2c(N3CCN(C)CC3)c(F)cc3c(=O)c(C(=O)O)cn1c23.C[C@H]1COc2c(N3CCN(C)CC3)c(F)cc3c(=O)c(C(=O)O)cn1c23.O [LEVOFLOXACIN]					1.3			64													
